The target of this assay is T1, recombinant ASK1 (Homo sapiens, UniProt Q99683).
T1 construct: purchased Carna Biosciences
Kind of assay: ASK1 Biochemical Assay (HTRF KinEASE-STK S3). As to conditions: ATP 100 μM; read-out: Biochemical Assay IC50. As to the method: ASK1 biochemical assay was standardized using recombinant ASK1 (Carna Biosciences), substrate and detection reagents from Cisbio HRTF KinEASE-STK S3 kit. Enzyme concentration, ATP, biotinylated STK substrate and STK antibodies were titrated for enzyme assay. Assay was carried out in ASK1 kinase buffer, 10 mM MOPS pH-7, 10 mM Mg-acetate, 1 mM DTT, 0.025% NP40, 1.5% glycerol and 0.05% BSA. DMSO was used as vehicle control with a final concentration of 1%. A 5 ng of ASK1 enzyme was incubated with compound for 1 hour at 23° C. on a shaker at 100rpm. ATP and biotin substrate was added at a final concentration of 100 μM and 1 μM and incubated for 3 hours at 23° C. on a shaker at 100rpm. […] Delta F ratios were calculated from data obtained at excitation (337 nm) and emission wavelengths (665 nm and 620-10 nm). Substrate blank values was considered as negative control. Values from negative control was substrated from vehicle control and compound treated wells. Enzyme inhibition by compounds were calculated from vehicle controls, which represent uninterrupted enzyme's activity.

Each structure is given as a SMILES string.

T1 sequence (Q99683 654-971 limits assumed): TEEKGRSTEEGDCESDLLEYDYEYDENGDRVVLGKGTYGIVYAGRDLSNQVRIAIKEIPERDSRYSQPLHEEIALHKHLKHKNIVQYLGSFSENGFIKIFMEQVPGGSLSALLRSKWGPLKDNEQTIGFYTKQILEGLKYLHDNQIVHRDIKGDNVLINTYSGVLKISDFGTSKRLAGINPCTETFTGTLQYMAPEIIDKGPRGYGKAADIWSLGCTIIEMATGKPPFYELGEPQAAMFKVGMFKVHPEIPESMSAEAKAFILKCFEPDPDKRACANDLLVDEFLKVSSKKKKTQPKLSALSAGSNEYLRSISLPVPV

In the case of `CC(C)n1cnnc1-c1cccc(N2CCN(c3cc(-n4ccnc4)ncn3)C2=O)n1` [Example 1001, 1-(6-(1H-imidazol-1-yl)pyrimidin-4-yl)-3-(6-(4-isopropyl-4H-1,2,4-triazol-3-yl)pyridin-2-yl)imidazolidin-2-one], the IC50 (in general, the point on the concentration scale where inhibition reaches its midpoint) is 1300 nM.
As for `CC(C)n1cnnc1-c1cccc(N2CCN(c3cc(-n4ccnc4)ccn3)C2=O)n1` [Example 1003, 1-(4-(1H-imidazol-1-yl)pyridin-2-yl)-3-(6-(4-isopropyl-4H-1,2,4-triazol-3-yl)pyridin-2-yl)imidazolidin-2-one], the IC50 was > 1000 nM.
As for `CC(C)n1cnnc1-c1cccc(-n2ccn(-c3cc(-n4ccnc4)ncn3)c2=O)n1` [Example 1004, 1-(6-(1H-imidazol-1-yl)pyrimidin-4-yl)-3-(6-(4-isopropyl-4H-1,2,4-triazol-3-yl)pyridin-2-yl)-1H-imidazol-2(3H)-one], the figure is > 1000 nM; as for `CC(C)n1cnnc1-c1cccc(N2CCN(c3cccc(-n4cnc(C5CC5)c4)c3)C2=O)n1` [Example 1005, 1-(3-(4-cyclopropyl-1H-imidazol-1-yl)phenyl)-3-(6-(4-isopropyl-4H-1,2,4-triazol-3-yl)pyridin-2-yl)imidazolidin-2-one], < 1000 nM.
Consider `CC(C)n1cnnc1-c1cccc(-n2ccn(-c3cccc(-n4ccnc4)c3)c2=O)n1` [Example 1006, 1-(3-(1H-imidazol-1-yl)phenyl)-3-(6-(4-isopropyl-4H-1,2,4-triazol-3-yl)pyridin-2-yl)-1H-imidazol-2(3H)-one], for which the IC50 is < 1000 nM.
With `CC(C)n1cnnc1-c1cccc(N2CCN(c3cccc(-n4ccnc4)c3F)C2=O)n1` [Example 1008, 1-(2-fluoro-3-(1H-imidazol-1-yl)phenyl)-3-(6-(4-isopropyl-4H-1,2,4-triazol-3-yl)pyridin-2-yl)imidazolidin-2-one] the figure was > 1000 nM.
Turning to `CC(C)n1cnnc1-c1cccc(N2CCN(c3cccc(S(C)(=O)=O)c3)C2=O)n1` [Example 1009, 1-(6-(4-isopropyl-4H-1,2,4-triazol-3-yl)pyridin-2-yl)-3-(3-(methylsulfonyl)phenyl)imidazolidin-2-one], the IC50 stood at 95 nM.
`CC(C)n1cnnc1-c1cccc(N2CCN(c3cccc(-c4cnn(C)c4)c3)C2=O)n1` [Example 1012, 1-(6-(4-isopropyl-4H-1,2,4-triazol-3-yl)pyridin-2-yl)-3-(3-(1-methyl-1H-pyrazol-4-yl)phenyl)imidazolidin-2-one]: the IC50 is < 1000 nM.
As for `CC(C)n1cnnc1-c1cccc(N2CCN(c3cccc(-c4ccc(C(N)=O)cc4)c3)C2=O)n1` [Example 1015, 3′-(3-(6-(4-isopropyl-4H-1,2,4-triazol-3-yl)pyridin-2-yl)-2-oxoimidazolidin-1-yl)-[1,1′-biphenyl]-4-carboxamide], the figure is > 1000 nM.
As for `CC(C)n1cnnc1-c1cccc(N2CCN(c3cccc(-c4ccc(C#N)cc4)c3)C2=O)n1` [Example 1016, 3′-(3-(6-(4-isopropyl-4H-1,2,4-triazol-3-yl)pyridin-2-yl)-2-oxoimidazolidin-1-yl)-[1,1′-biphenyl]-4-carbonitrile], the figure is > 1000 nM.
Turning to `CC(C)n1cnnc1-c1cccc(N2CCN(c3cccc(-c4ccc(C(F)(F)F)cc4)c3)C2=O)n1` [Example 1017, 1-(6-(4-isopropyl-4H-1,2,4-triazol-3-yl)pyridin-2-yl)-3-(4′-(trifluoromethyl)-[1,1′-biphenyl]-3-yl)imidazolidin-2-one], the IC50 is > 1000 nM.
With `COc1cc(C)c(-c2ccc(S(C)(=O)=O)cc2)cc1N1CCN(c2cccc(-c3nncn3C(C)C)n2)C1=O` [Example 1026, 1-(6-(4-isopropyl-4H-1,2,4-triazol-3-yl)pyridin-2-yl)-3-(4-methoxy-6-methyl-4′-(methylsulfonyl)-[1,1′-biphenyl]-3-yl)imidazolidin-2-one] the figure was > 100 nM; with `CC(C)n1cnnc1-c1cccc(N2CCN(S(C)(=O)=O)C2=O)n1` [Example 1028, 1-(6-(4-isopropyl-4H-1,2,4-triazol-3-yl)pyridin-2-yl)-3-(methylsulfonyl)imidazolidin-2-one], > 1000 nM.
With `CC(C)n1cnnc1-c1cccc(N2CCN(c3ccc(O)cc3)C2=O)n1` [Example 1030, 1-(4-hydroxyphenyl)-3-(6-(4-isopropyl-4H-1,2,4-triazol-3-yl)pyridin-2-yl)imidazolidin-2-one], the IC50 was > 1000 nM.
On to `COc1cc(C)c(S(C)(=O)=O)cc1N1CCN(c2cccc(-c3nncn3C(C)C)n2)C1=O` [Example 1031, 1-(6-(4-isopropyl-4H-1,2,4-triazol-3-yl)pyridin-2-yl)-3-(2-methoxy-4-methyl-5-(methylsulfonyl)phenyl)imidazolidin-2-one], for which the IC50 was > 1000 nM.
Consider `CC(C)n1cnnc1-c1cccc(N2CCN(c3ccc(C(F)(F)F)cc3)C2=O)n1` [Example 1033, 1-(4-(trifluoromethyl)phenyl)-3-(6-(4-isopropyl-4H-1,2,4-triazol-3-yl)pyridin-2-yl)imidazolidin-2-one], for which the IC50 is > 100 nM.
As for `Cc1cc(S(C)(=O)=O)ccc1N1CCN(c2cccc(-c3nncn3C(C)C)n2)C1=O` [Example 1042, 1-(6-(4-isopropyl-4H-1,2,4-triazol-3-yl)pyridin-2-yl)-3-(2-methyl-4-(methylsulfonyl)phenyl)imidazolidin-2-one], the figure is > 100 nM.
As for `CC(C)n1cnnc1-c1cccc(N2CCN(c3ccc4nc(NC5CC5)sc4c3)C2=O)n1` [Example 1046, N-cyclopropyl-6-(3-(6-(4-isopropyl-4H-1,2,4-triazol-3-yl)pyridin-2-yl)-2-oxoimidazolidin-1-yl)benzo[d]thiazol-2-aminium 2,2,2-trifluoroacetate], the IC50 is > 100 nM.
As for `CC(C)n1cnnc1-c1cccc(N2CCN(c3ccc(S(C)(=O)=O)c(N4CCCC4)c3)C2=O)n1` [Example 1058, 1-(6-(4-isopropyl-4H-1,2,4-triazol-3-yl)pyridin-2-yl)-3-(4-(methylsulfonyl)-3-(pyrrolidin-1-yl)phenyl)imidazolidin-2-one], the figure is > 100 nM.
With `CC(C)n1cnnc1-c1cccc(N2CCN(c3ccc(F)c(C4CC4)c3)C2=O)n1` [Example 1060, 1-(3-cyclopropyl-4-fluorophenyl)-3-(6-(4-isopropyl-4H-1,2,4-triazol-3-yl)pyridin-2-yl)imidazolidin-2-one] the figure was < 100 nM; with `CC(C)c1cc(N2CCN(c3cccc(-c4nncn4C(C)C)n3)C2=O)ccc1S(C)(=O)=O` [Example 1062, 1-(3-isopropyl-4-(methylsulfonyl)phenyl)-3-(6-(4-isopropyl-4H-1,2,4-triazol-3-yl)pyridin-2-yl)imidazolidin-2-one], > 1000 nM.
Regarding `CC(C)n1cnnc1-c1ccc(N2CCN(c3ccc(S(C)(=O)=O)cc3)C2=O)nc1` [Example 1064, 1-(5-(4-isopropyl-4H-1,2,4-triazol-3-yl)pyridin-2-yl)-3-(4-(methylsulfonyl)phenyl)imidazolidin-2-one], the IC50 was > 100 nM.
As for `CC(C)n1cnnc1-c1cccc(N2CCN(c3ccc(S(C)(=O)=O)cc3)C2=O)n1` [Example 1065, 1-(6-(4-isopropyl-4H-1,2,4-triazol-3-yl)pyridin-2-yl)-3-(4-(methylsulfonyl)phenyl)imidazolidin-2-one], the figure is > 1000 nM; as for `CC(C)n1cnnc1-c1cccc(N2CCN(c3ccc(N4CCC(C)(C)CC4)cc3)C2=O)n1` [Example 1070, 1-(6-(4-isopropyl-4H-1,2,4-triazol-3-yl)pyridin-2-yl)-3-(4-(4,4-dimethylpiperidin-1-yl)phenyl)imidazolidin-2-one], < 100 nM.
With `CC(C)n1cnnc1-c1cccc(N2CCN(c3ccc(N4CCC(O)CC4)nc3)C2=O)n1` [Example 1072, 1-(6-(4-hydroxypiperidin-1-yl)pyridin-3-yl)-3-(6-(4-isopropyl-4H-1,2,4-triazol-3-yl)pyridin-2-yl)imidazolidin-2-one] the figure was > 100 nM; with `Cc1cc(N2CCN(c3cccc(-c4nncn4C(C)C)n3)C2=O)ccc1N1CCOCC1` [Example 1079, 1-(6-(4-isopropyl-4H-1,2,4-triazol-3-yl)pyridin-2-yl)-3-(3-methyl-4-morpholinophenyl)imidazolidin-2-one], < 100 nM.
As for `CC(C)n1cnnc1-c1cccc(N2CCN(c3ccc(N4[C@H](C)COC[C@H]4C)cc3)C2=O)n1` [Example 1086, 1-(6-(4-isopropyl-4H-1,2,4-triazol-3-yl)pyridin-2-yl)-3-(4-((3R,5R)-3,5-dimethylmorpholino)phenyl)imidazolidin-2-one], the figure is < 100 nM; as for `CC(C)n1cnnc1-c1cccc(N2CCN(c3ccc(N4CC(O)(C(C)C)C4)cc3)C2=O)n1` [Example 1089, 1-(4-(3-hydroxy-3-isopropylazetidin-1-yl)phenyl)-3-(6-(4-isopropyl-4H-1,2,4-triazol-3-yl)pyridin-2-yl)imidazolidin-2-one], < 100 nM.
As for `CC(C)n1cnnc1-c1cccc(N2CCN(C)C2=O)n1` [Example 1099, 1-(6-(4-isopropyl-4H-1,2,4-triazol-3-yl)pyridin-2-yl)-3-methylimidazolidin-2-one], the IC50 is < 100 nM.
For the compound `CC(C)n1cnnc1-c1cccc(N2CCN(c3ccc(N4CCCC4)cc3)C2=O)n1` [Example 1100, 1-(6-(4-isopropyl-4H-1,2,4-triazol-3-yl)pyridin-2-yl)-3-(4-(pyrrolidin-1-yl)phenyl)imidazolidin-2-one], the IC50 was < 100 nM.

These data come from patent US20220332700A1, “NOVEL APOPTOSIS SIGNAL-REGULATING KINASE 1 INHIBITORS” (MANKIND PHARMA LTD, priority 2019, published 2022).
